# Reference: BindingDB's records for doi:10.7270/Q20863RR (Nmmlsc, 2010)
# Molecular target: T1, Regulator of G-protein signaling 7 (Homo sapiens, UniProt P49802)
# T1 sequence (P49802 whole entry): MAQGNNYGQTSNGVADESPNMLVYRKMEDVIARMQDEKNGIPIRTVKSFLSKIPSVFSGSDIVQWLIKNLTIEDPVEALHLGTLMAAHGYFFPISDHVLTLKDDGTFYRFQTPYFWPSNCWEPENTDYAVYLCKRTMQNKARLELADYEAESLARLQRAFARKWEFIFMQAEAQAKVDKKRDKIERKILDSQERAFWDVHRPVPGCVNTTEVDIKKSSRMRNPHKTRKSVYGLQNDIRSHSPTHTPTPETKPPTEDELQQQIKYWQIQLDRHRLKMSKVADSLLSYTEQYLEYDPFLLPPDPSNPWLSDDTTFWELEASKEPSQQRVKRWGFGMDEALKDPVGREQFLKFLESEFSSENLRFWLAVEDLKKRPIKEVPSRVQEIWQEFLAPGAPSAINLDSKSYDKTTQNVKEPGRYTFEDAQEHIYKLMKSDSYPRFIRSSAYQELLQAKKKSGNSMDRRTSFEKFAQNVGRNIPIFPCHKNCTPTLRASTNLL
# Test: small molecules altering RGS7 interaction with Galphao – biochemical, multiplexed bead flow cytometry, SAR compounds, SAR follow-up (AID 2296)
smiles,measurement,value
"NS(=O)(=O)c1ccc(N=NCc2ccc(O)c(O)c2O)c([N+](=O)[O-])c1 [4-[[(E)-(2,3-dihydroxy-4-oxo-1-cyclohexa-2,5-dienylidene)methyl]hydrazo]-3-nitrobenzenesulfonamide]",Ki,120 nM
